Molecules are shown by their SMILES. ≈ marks a conversion by molar mass, not a printed value.

Data on 33 molecules can be found in ChEMBL document CHEMBL3734741, “Pyrazole clubbed triazolo[1,5-a]pyrimidine hybrids as an anti-tubercular agents: Synthesis, in vitro screening and molecular docking study” (Bioorg Med Chem, 2015).

Data set [1] concerns Mycobacterium tuberculosis. The experiment in a line: Antituberculosis activity against Mycobacterium tuberculosis H37Rv MTCC 300 at 6.25 ug/ml after 4 weeks by Lowenstein-Jensen medium method. The note with it: H37Rv MTCC 300, 672 h. It counts as functional.
A short description of data set [2]: Cytotoxicity against African green monkey Vero cells after 72 hrs by MTT assay. Conditions: chlorocebus sabaeus. It counts as cell-based. On the technique in general: Tetrazolium dyes change colour on reduction, which living cells bring about.
Data set [3] is described as follows: Inhibition of Mycobacterium tuberculosis InhA assessed as conversion of crotonoyl-CoA to butyryl-CoA by spectrophotometric method.
Data set [4] has as its system Mycobacterium tuberculosis. The experiment in a line: Antituberculosis activity against Mycobacterium tuberculosis H37Rv MTCC 300 after 4 weeks by Lowenstein-Jensen medium method. It counts as functional. Conditions: H37Rv MTCC 300, 672 h.
The nature of data set [5]: Selectivity index, ratio of CC50 for African green monkey Vero cells to IC50 Mycobacterium tuberculosis InhA. The format is functional.

`CC(C)C1=C(C(=O)Nc2ccccn2)C(c2cn(-c3ccccc3)nc2-c2ccc(Cl)cc2)n2ncnc2N1` (stereo not given): the inhibition (usually the drop in the measured response relative to a control, in per cent) at 6.25 µg/mL in data set [1] was determined as 81%.

`Cc1ccc(NC(=O)C2=C(C(C)C)Nc3ncnn3C2c2cn(-c3ccccc3)nc2-c2ccc(Cl)cc2)nc1` (stereo not given): in data set [1], the inhibition at 6.25 µg/mL was determined as 76%.

Consider `Cc1ccc(-c2nn(-c3ccccc3)cc2C2C(C(=O)Nc3ccc(Br)cn3)=C(C(C)C)Nc3ncnn32)cc1` (stereo not given), for which the inhibition at 6.25 µg/mL in data set [1] was determined as 66%.

Molecule `CC(C)C1=C(C(=O)Nc2ccc(Br)cn2)C(c2cn(-c3ccccc3)nc2-c2ccc(F)cc2)n2ncnc2N1` (stereo not given) registered an inhibition at 6.25 µg/mL in data set [1] of 88%.

Take `CC1=C(C(=O)Nc2ccccn2)C(c2cn(-c3ccccc3)nc2-c2ccc([N+](=O)[O-])cc2)n2ncnc2N1` (stereo not given): 6.25 µg/mL produced 84% inhibition in data set [1].

In data set [1], `CC1=C(C(=O)Nc2ccccn2)C(c2cn(-c3ccccc3)nc2-c2ccc(Cl)cc2)n2ncnc2N1` (stereo not given) had an inhibition at 6.25 µg/mL of 84%.

Take `CC(C)C1=C(C(=O)Nc2ccc(Br)cn2)C(c2cn(-c3ccccc3)nc2-c2ccc([N+](=O)[O-])cc2)n2ncnc2N1` (stereo not given): at 6.25 µg/mL the inhibition in data set [1] was 78%.

In data set [1], `CC(C)C1=C(C(=O)Nc2ccccn2)C(c2cn(-c3ccccc3)nc2-c2ccc(F)cc2)n2ncnc2N1` (stereo not given) had an inhibition at 6.25 µg/mL of 84%.

For `CC1=C(C(=O)Nc2ccccn2)C(c2cn(-c3ccccc3)nc2-c2ccc(C)cc2)n2ncnc2N1` (stereo not given), in data set [1], testing at 6.25 µg/mL gave an inhibition of 56%.

Turning to `CC(C)C1=C(C(=O)Nc2ccc(Br)cn2)C(c2cn(-c3ccccc3)nc2-c2ccccc2)n2ncnc2N1` (stereo not given), in data set [1], 6.25 µg/mL produced 54% inhibition.

On to `Cc1ccc(NC(=O)C2=C(C(C)C)Nc3ncnn3C2c2cn(-c3ccccc3)nc2-c2ccc(F)cc2)nc1` (stereo not given), for which the inhibition at 6.25 µg/mL in data set [1] worked out at 82%.

In data set [1], `Cc1ccc(NC(=O)C2=C(C(C)C)Nc3ncnn3C2c2cn(-c3ccccc3)nc2-c2ccccc2)nc1` (stereo not given) returned an inhibition at 6.25 µg/mL of 42%.

As for `CC1=C(C(=O)Nc2ccccn2)C(c2cn(-c3ccccc3)nc2-c2ccccc2)n2ncnc2N1` (stereo not given), in data set [1], the inhibition at 6.25 µg/mL was determined as 72%.

Molecule `Cc1ccc(NC(=O)C2=C(C(C)C)Nc3ncnn3C2c2cn(-c3ccccc3)nc2-c2ccc([N+](=O)[O-])cc2)nc1` (stereo not given) registered an inhibition at 6.25 µg/mL in data set [1] of 68%.

For `CC1=C(C(=O)Nc2ccc(Br)cn2)C(c2cn(-c3ccccc3)nc2-c2ccccc2)n2ncnc2N1` (stereo not given), it took 25 µg/mL (≈ 45.2 µM) to reach half-maximal cytotoxicity in data set [2] (CC50 at 72 h). In data set [3], the IC50 – broadly, the point on the concentration scale where inhibition reaches its midpoint – turned out to be 0.85 µg/mL (≈ 1.54 µM). Testing at 6.25 µg/mL in data set [1] gave an inhibition of 95%. In data set [4], the MIC (in general, the least concentration at which growth counts as inhibited) turned out to be 3.13 µg/mL (≈ 5.66 µM). Also, the “Ratio CC50/IC50” value in data set [5] turned out to be 29.41.

As to `Cc1ccc(-c2nn(-c3ccccc3)cc2C2C(C(=O)Nc3ccccn3)=C(C(C)C)Nc3ncnn32)cc1` (stereo not given), the inhibition at 6.25 µg/mL in data set [1] came out at 55%.

Take `Cc1ccc(-c2nn(-c3ccccc3)cc2C2C(C(=O)Nc3ccc(C)cn3)=C(C(C)C)Nc3ncnn32)cc1` (stereo not given): the inhibition at 6.25 µg/mL in data set [1] came out at 46%.

With `CC1=C(C(=O)Nc2ccc(Br)cn2)C(c2cn(-c3ccccc3)nc2-c2ccc(Cl)cc2)n2ncnc2N1` (stereo not given), the CC50 – broadly, the concentration giving 50% cytotoxicity – at 72 h in data set [2] was determined as 20 µg/mL (≈ 34 µM). In addition, the IC50 in data set [3] came to 0.11 µg/mL (≈ 0.187 µM). Moreover, the inhibition at 6.25 µg/mL in data set [1] was determined as 98%. For the same molecule, the MIC in data set [4] came out at 0.78 µg/mL (≈ 1.33 µM). For the same molecule, the “Ratio CC50/IC50” value in data set [5] is 181.81.

`CC1=C(C(=O)Nc2ccc(Br)cn2)C(c2cn(-c3ccccc3)nc2-c2ccc(F)cc2)n2ncnc2N1` (stereo not given): in data set [2], it took 20 µg/mL (≈ 35 µM) to reach half-maximal cytotoxicity (CC50 at 72 h). In addition, the IC50 in data set [3] was 0.11 µg/mL (≈ 0.193 µM). In data set [1], the inhibition at 6.25 µg/mL came out at 99%. The same molecule yielded an MIC in data set [4] of 0.39 µg/mL (≈ 0.683 µM). Also, the “Ratio CC50/IC50” value in data set [5] amounted to 181.81.

Take `CC1=C(C(=O)Nc2ccccn2)C(c2cn(-c3ccccc3)nc2-c2ccc(F)cc2)n2ncnc2N1` (stereo not given): half-maximal cytotoxicity in data set [2] (CC50 at 72 h) was put at 20 µg/mL (≈ 40.6 µM). Also, the IC50 in data set [3] stood at 0.16 µg/mL (≈ 0.325 µM). Also, in data set [1], the inhibition at 6.25 µg/mL is 99%. In data set [4], this molecule registered an MIC of 0.78 µg/mL (≈ 1.58 µM). For the same molecule, the “Ratio CC50/IC50” value in data set [5] is reported as 125.

The molecule `CC1=C(C(=O)Nc2ccc(C)cn2)C(c2cn(-c3ccccc3)nc2-c2ccc(Cl)cc2)n2ncnc2N1` (stereo not given) showed an inhibition at 6.25 µg/mL in data set [1] of 79%.

For the molecule `CC1=C(C(=O)Nc2ccc(C)cn2)C(c2cn(-c3ccccc3)nc2-c2ccc(F)cc2)n2ncnc2N1` (stereo not given), in data set [1], 6.25 µg/mL produced 86% inhibition.

`CC1=C(C(=O)Nc2ccc(Br)cn2)C(c2cn(-c3ccccc3)nc2-c2ccc([N+](=O)[O-])cc2)n2ncnc2N1` (stereo not given) gave a CC50 at 72 h in data set [2] of 25 µg/mL (≈ 41.8 µM). Also, the IC50 in data set [3] was determined as 0.28 µg/mL (≈ 0.468 µM). The same molecule gave an inhibition at 6.25 µg/mL in data set [1] of 96%. The same molecule showed an MIC in data set [4] of 1.56 µg/mL (≈ 2.61 µM). Besides, the “Ratio CC50/IC50” value in data set [5] amounted to 89.28.

`CC1=C(C(=O)Nc2ccc(Br)cn2)C(c2cn(-c3ccccc3)nc2-c2ccc(C)cc2)n2ncnc2N1` (stereo not given) had an inhibition at 6.25 µg/mL in data set [1] of 64%.

As for `CC(C)C1=C(C(=O)Nc2ccc(Br)cn2)C(c2cn(-c3ccccc3)nc2-c2ccc(Cl)cc2)n2ncnc2N1` (stereo not given), at 6.25 µg/mL the inhibition in data set [1] was 84%.

`CC(C)C1=C(C(=O)Nc2ccccn2)C(c2cn(-c3ccccc3)nc2-c2ccc([N+](=O)[O-])cc2)n2ncnc2N1` (stereo not given) registered an inhibition at 6.25 µg/mL in data set [1] of 74%.

In turn, `CC1=C(C(=O)Nc2ccc(C)cn2)C(c2cn(-c3ccccc3)nc2-c2ccc([N+](=O)[O-])cc2)n2ncnc2N1` (stereo not given) registered an inhibition at 6.25 µg/mL in data set [1] of 68%.

Turning to `CC1=C(C(=O)Nc2ccc(C)cn2)C(c2cn(-c3ccccc3)nc2-c2ccc(C)cc2)n2ncnc2N1` (stereo not given), the inhibition at 6.25 µg/mL in data set [1] stood at 49%.

In turn, `CC(C)C1=C(C(=O)Nc2ccccn2)C(c2cn(-c3ccccc3)nc2-c2ccccc2)n2ncnc2N1` (stereo not given) yielded an inhibition at 6.25 µg/mL in data set [1] of 45%.

In the case of `CC1=C(C(=O)Nc2ccc(C)cn2)C(c2cn(-c3ccccc3)nc2-c2ccccc2)n2ncnc2N1` (stereo not given), the inhibition at 6.25 µg/mL in data set [1] was 66%.

For `CC[C@@H](CO)NCCN[C@@H](CC)CO` [ETHAMBUTOL], in data set [1], testing at 6.25 µg/mL gave an inhibition of 99%. Further, in data set [4], the MIC stood at 3.12 µg/mL (≈ 15.3 µM).

For the molecule `NNC(=O)c1ccncc1` [ISONIAZID], inhibition of growth in data set [4] (MIC) required 0.3 µg/mL (≈ 2.19 µM).

Consider `CO[C@H]1/C=C/O[C@@]2(C)Oc3c(C)c(O)c4c(O)c(c(/C=N/N5CCN(C)CC5)c(O)c4c3C2=O)NC(=O)/C(C)=C\C=C\[C@H](C)[C@H](O)[C@@H](C)[C@@H](O)[C@@H](C)[C@H](OC(C)=O)[C@@H]1C` [RIFAMPIN], for which testing at 6.25 µg/mL in data set [1] gave an inhibition of 99%. In data set [4], this molecule displayed an MIC of 0.5 µg/mL (≈ 0.608 µM).
